# Test results from patent US7534782B2, “Crystal of 1-methylcarbapenem solvate” (Sankyo Company, Limited, priority 2003, dated 2009).
# Like-named read-outs stand apart in the source and are kept apart here.
# Assays:
# [1] = test system: Gram-negative bacterial strains and Gram-positive bacterial strains; conditions: cited from earlier work
# [2] = storage stability of the crystalline forms; type: physicochemical
structure (smiles),measurement,setting,value
"C[C@@H](O)[C@H]1C(=O)N2C(C(=O)O)=C(S[C@H]3C[C@@H](C(=O)N4CC[C@H](NC(=O)CNC(=N)N)C4)N(C)C3)[C@H](C)[C@H]12 [compound (I), (1R,5S,6S)-2-[(2S,4S)-2-[(3S)-3-(2-guanidinoacetylamino)pyrrolidin-1-ylcarbonyl]-1-methylpyrrolidin-4-ylthio]-6-[(1R)-1-hydroxyethyl]-1-methyl-1-carbapen-2-em-3-carboxylic acid]",antibiotic activity,[1],excellent antibiotic activity
same,antibiotic activity,[1]; listed as 1-methylcarbapenem compound of formula (I),potent antibiotic activity
"C[C@@H](O)[C@H]1C(=O)N2C(C(=O)O)=C(S[C@H]3C[C@@H](C(=O)N4CC[C@H](NC(=O)CNC(=N)N)C4)N(C)C3)[C@H](C)[C@H]12 [Crystalline form (I-1), (1R,5S,6S)-2-[(2S,4S)-2-[(3S)-3-(2-Guanidinoacetylamino)pyrrolidin-1-ylcarbonyl]-1-methylpyrrolidin-4-ylthio]-6-[(1R)-1-hydroxyethyl]-1-methyl-1-carbapen-2-em-3-carboxylic acid ethanolate]",storage stability under dry conditions,[2]; dry conditions,improved storage stability
"C[C@@H](O)[C@H]1C(=O)N2C(C(=O)O)=C(S[C@H]3C[C@@H](C(=O)N4CC[C@H](NC(=O)CNC(=N)N)C4)N(C)C3)[C@H](C)[C@H]12 [Crystalline form (I-2), (1R,5S,6S)-2-[(2S,4S)-2-[(3S)-3-(2-Guanidinoacetylamino)pyrrolidin-1-ylcarbonyl]-1-methylpyrrolidin-4-ylthio]-6-[(1R)-1-hydroxyethyl]-1-methyl-1-carbapen-2-em-3-carboxylic acid tetrahydrate]",stability during storage under conditions of normal or high humidity,[2],stable during storage
"C[C@@H](O)[C@H]1C(=O)N2C(C(=O)O)=C(S[C@H]3C[C@@H](C(=O)N4CC[C@H](NC(=O)CNC(=N)N)C4)N(C)C3)[C@H](C)[C@H]12 [Crystalline form (I-3), (1R,5S,6S)-2-[(2S,4S)-2-[(3S)-3-(2-Guanidinoacetylamino)pyrrolidin-1-ylcarbonyl]-1-methylpyrrolidin-4-ylthio]-6-[(1R)-1-hydroxyethyl]-1-methyl-1-carbapen-2-em-3-carboxylic acid ethanolate trihydrate]",stability during storage under conditions of normal or high humidity,[2]; trihydrate,remains stable during storage
